≈ marks a conversion by molar mass, not a printed value. Calls of active or inactive are those of the source. Where only a bound is given, the exact number is not on record here.

The test system of test [1] is Mycobacterium avium. Kind of test: Antimycobacterial activity against isoniazid-resistant Mycobacterium avium at 100 ug/disk by disk diffusion assay. It counts as functional, organism-based. Background: Agar diffusion results depend on both activity and mobility in agar.
In test [2] the test system is Mycobacterium avium. Briefly: Antimycobacterial activity against isoniazid-resistant Mycobacterium avium at 20 ug/disk by disk diffusion assay. The class given is functional, organism-based.
Test [3] relates to Escherichia coli. Briefly: Antimicrobial activity against Escherichia coli DC2 by twofold serial microbroth dilution method. It counts as functional.
The test system of test [4] is Escherichia coli. Briefly: Antimicrobial activity against Escherichia coli UB1005 by twofold serial microbroth dilution method. The class given is functional. In general terms: In broth dilution the organism is exposed to a series of concentrations in liquid medium.
For test [5], the system named is Pseudomonas aeruginosa. Kind of test: Antimicrobial activity against Pseudomonas aeruginosa K799 by twofold serial microbroth dilution method. It counts as functional.
Test [6] concerns Pseudomonas aeruginosa. Briefly: Antimicrobial activity against Pseudomonas aeruginosa Z61 by twofold serial microbroth dilution method. The class given is functional.
The test system of test [7] is Staphylococcus aureus. Kind of test: Antimicrobial activity against methicillin-resistant Staphylococcus aureus SAP00017 by twofold serial microbroth dilution method. The class given is functional.
In test [8] the test system is Staphylococcus aureus. Kind of test: Antimicrobial activity against methicillin-susceptible Staphylococcus aureus RN4220 by twofold serial microbroth dilution method. It counts as functional.
Another test deals with Bacillus subtilis. Briefly: Antimicrobial activity against Bacillus subtilis UBC221 by twofold serial microbroth dilution method. It counts as functional.
The subject of another test is Candida albicans. Kind of test: Antimicrobial activity against Candida albicans UBC54 by twofold serial microbroth dilution method. The class given is functional.
Test [9] relates to Mycobacterium tuberculosis. Briefly: Antimycobacterial activity against Mycobacterium tuberculosis at 100 ug/disk by disk diffusion assay. The class given is functional, organism-based.
The subject of test [10] is Mycobacterium tuberculosis. Kind of test: Antimycobacterial activity against Mycobacterium tuberculosis at 20 ug/disk by disk diffusion assay. The class given is functional, organism-based.
Test [11] has as its system Mycobacterium tuberculosis. Briefly: Antimycobacterial activity against Mycobacterium tuberculosis at 10 ug/disk by disk diffusion assay. The class given is functional, organism-based.
The test system of test [12] is Mycobacterium avium. Kind of test: Antimycobacterial activity against isoniazid-resistant Mycobacterium avium at 10 ug/disk by disk diffusion assay. It counts as functional, organism-based.

Broadly, the MIC is the smallest concentration in the dilution series that meets the test's criterion for growth inhibition. In the case of `C=C[C@H](O)C#CC#C[C@@H](O)/C=C\CCCCCCCCOC(C)=O`, the outcome (in the test on Mycobacterium avium [1]; in the test on Mycobacterium avium [2]; in [9]) was Active. Moreover, the MIC was greater than 50 µg/mL with Escherichia coli [3]; greater than 50 µg/mL against Escherichia coli [4]; greater than 50 µg/mL in the test on Pseudomonas aeruginosa [5]; greater than 50 µg/mL in the test with Pseudomonas aeruginosa [6]; greater than 50 µg/mL in the test on Staphylococcus aureus [7]; 50 µg/mL (≈ 150 µM) with Staphylococcus aureus [8]. For the same compound, the MIC in the test on Bacillus subtilis was 25 µg/mL (≈ 75.2 µM); against Candida albicans, greater than 50 µg/mL.
For the compound `NNC(=O)c1ccncc1`, the result in [10], in [11] and in [9] was Active. In addition, the result with Mycobacterium avium [1], in the test on Mycobacterium avium [2] and in the test on Mycobacterium avium [12] was inactive.
As to `C=C[C@@H](O)C#CC#C[C@@H](O)/C=C\CCCCCCC` [FALCARINDIOL], the result (in the test with Mycobacterium avium [1]; in the test on Mycobacterium avium [2]; in test [9]) was Active. Besides, the MIC in the test on Escherichia coli [3] is 25 µg/mL (≈ 96 µM); in the test with Escherichia coli [4], greater than 50 µg/mL; in the test on Pseudomonas aeruginosa [5] it was greater than 50 µg/mL; in the test on Pseudomonas aeruginosa [6], 50 µg/mL (≈ 192 µM); with Staphylococcus aureus [7], 25 µg/mL (≈ 96 µM); against Staphylococcus aureus [8] it was 25 µg/mL (≈ 96 µM). The MIC in the test with Bacillus subtilis was found to be 6.25 µg/mL (≈ 24 µM); with Candida albicans, 25 µg/mL (≈ 96 µM).
Turning to `C=C[C@H](O)C#CC#CC/C=C\CCCCCCC` [FALCARINOL], the outcome (in test [10]; in the test on Mycobacterium avium [1]; in the test with Mycobacterium avium [2]; in [9]) was Active. Besides, the MIC is 6.25 µg/mL (≈ 25.6 µM) in the test with Escherichia coli [3]; greater than 50 µg/mL with Escherichia coli [4]; greater than 50 µg/mL in the test with Pseudomonas aeruginosa [5]; 6.25 µg/mL (≈ 25.6 µM) against Pseudomonas aeruginosa [6]; 3.1 µg/mL (≈ 12.7 µM) with Staphylococcus aureus [7]; 3.1 µg/mL (≈ 12.7 µM) in the test on Staphylococcus aureus [8]. Further, the minimal inhibitory concentration (MIC) in the test on Bacillus subtilis is 3.1 µg/mL (≈ 12.7 µM); against Candida albicans, 6.25 µg/mL (≈ 25.6 µM).
In the case of `COc1cccc(OC)c1C(=O)N[C@@H]1C(=O)N2[C@@H]1SC(C)(C)[C@@H]2C(=O)O` [METHICILLIN], the MIC against Escherichia coli [3] is 1.6 µg/mL (≈ 4.21 µM); against Escherichia coli [4], greater than 100 µg/mL; in the test on Pseudomonas aeruginosa [5], greater than 100 µg/mL; in the test on Pseudomonas aeruginosa [6], 3.1 µg/mL (≈ 8.15 µM); in the test with Staphylococcus aureus [8] it was 1.6 µg/mL (≈ 4.21 µM); with Bacillus subtilis, 100 µg/mL (≈ 263 µM). The compound further displayed an MIC in the test on Candida albicans greater than 100 µg/mL.
Consider `CC[C@H](O)C#CC#C[C@@H](O)/C=C\CCCCCCCCOC(C)=O` [OPLOPANDIOL ACETATE], for which the result (in [10]; in the test on Mycobacterium avium [1]; in the test with Mycobacterium avium [2]; in test [9]) was Active. For the same compound, the MIC with Escherichia coli [3] was greater than 50 µg/mL; against Escherichia coli [4], greater than 50 µg/mL; in the test on Pseudomonas aeruginosa [5] it was greater than 50 µg/mL; with Pseudomonas aeruginosa [6] it was greater than 50 µg/mL; against Staphylococcus aureus [7] it was greater than 50 µg/mL; against Staphylococcus aureus [8], 50 µg/mL. In addition, the figures for the MIC against Bacillus subtilis and with Candida albicans were 25 µg/mL and greater than 50 µg/mL, respectively.
For the compound `CCCCCCC/C=C\[C@H](O)C#CC#C[C@@H](O)CC` [OPLOPANDIOL], the outcome (in the test on Mycobacterium avium [1]; in test [9]) was Active. For the same compound, the MIC against Escherichia coli [3] was 6.25 µg/mL (≈ 23.8 µM); in the test on Escherichia coli [4], greater than 50 µg/mL; against Pseudomonas aeruginosa [5], greater than 50 µg/mL; against Pseudomonas aeruginosa [6] it was greater than 50 µg/mL; against Staphylococcus aureus [7] it was 6.25 µg/mL (≈ 23.8 µM); in the test on Staphylococcus aureus [8] it was 6.25 µg/mL (≈ 23.8 µM). The figures for the MIC in the test with Bacillus subtilis and in the test with Candida albicans were 6.25 µg/mL (≈ 23.8 µM) and 12.5 µg/mL (≈ 47.6 µM), respectively.
Turning to GENTAMICIN, the MIC against Escherichia coli [3] was 0.6 µg/mL; against Escherichia coli [4] it was 1.25 µg/mL; against Pseudomonas aeruginosa [5], 1.25 µg/mL; against Pseudomonas aeruginosa [6], 0.6 µg/mL; against Staphylococcus aureus [7] it was greater than 10 µg/mL; in the test on Staphylococcus aureus [8], 0.6 µg/mL. Inhibition of growth against Bacillus subtilis (MIC) required 1.25 µg/mL.

Values taken from ChEMBL document CHEMBL1158854, “Antimycobacterial polyynes of Devil's Club (Oplopanax horridus), a North American native medicinal plant” (1997).
